Source: patent US7550277B2, “D-amino acid dehydrogenase and method of making D-amino acids” (Codexis, Inc., priority 2005, dated 2009)

B1: wild-type diaminopimelate dehydrogenase enzyme from Corynebacterium glutamicum: wild-type diaminopimelate dehydrogenase from Corynebacterium glutamicum (ATTC #13032), SEQ ID NO. 2 (protein, listed as Corynebacterium glutamicum)
chain: MTNIRVAIVGYGNLGRSVEKLIAKQPDMDLVGIFSRRATLDTKTPVFDVADVDKHADDVDVLFLCMGSATDIPEQAPKFAQFACTVDTYDNHRDIPRHRQVMNEAATAAGNVALVSTGWDPGMFSINRVYAAAVLAEHQQHTFWGPGLSQGHSDALRRIPGVQKAVQYTLPSEDALEKARRGEAGDLTGKQTHKRQCFVVADAADHERIENDIRTMPDYFVGYEVEVNFIDEATFDSEHTGMPHGGHVITTGDTGGFNHTVEYILKLDRNPDFTASSQIAFGRAAHRMKQQGQSGAFTVLEVAPYLLSPENLDDLIARDV

Assays:
[1] = spontaneous racemization of the hydantoin at a pH above 8; depends on substituent at the 5-position; cited from earlier work
[2] = Activity of DAPDH enzymes for reductive amination of 2-keto acids (NADPH decrease at 340 nm); format: biochemical
Method: The mutant DAPDH enzyme was assayed spectrophotometrically by monitoring the decrease in concentration of NADPH. The typical reductive amination reaction contained the following: 100 mM sodium carbonate/bicarbonate buffer, pH 9.0, 200 mM NH4Cl, 25 mM 2-keto acid, and 0.2 mM NADPH. The decrease in absorbance at 340 nm was monitored and an NADPH extinction coefficient of 6.22 mM^−1cm^−1 was used to correlate absorbance to concentration. Protein concentrations were determined via the Bradford method ^19 using bovine serum albumin as a protein standard.

Molecule | rate of racemization τ1/2 [1] | activity toward the reductive amination of 2-ketoacids to produce D-amino acids [2]
O=C1NC(=O)C(c2ccccc2)N1 (centres unmarked) [phenylhydantoin] | 0.3 h | –
CC(C)C1NC(=O)NC1=O (centres unmarked) [isopropylhydantoin] | 56 h | –
O=C1NC(=O)C(Cc2ccccc2)N1 (centres unmarked) [benzylhydantoin] | 5 h | –
tert-butylhydantoin | 120 h | –
B1 | – | little or no activity
